Results from US20160024203A1, “METHODS OF PRODUCING ANTIBODIES IN YEAST” (BRISTOL-MYERS SQUIBB COMPANY, priority 2013, published 2016).

How the values were obtained:
[1] = test system: P. pastoris; experiment: Effects of hydroxyurea on cell growth and antibody productivity in P. pastoris fermentation (Run 01MAY11); format: cell-based, Pichia pastoris; details: for Sup Titer (Normalized): anti-IL-6 antibody supernatant titer; for Sup Titer (Normalized) / WB Titer (Normalized): lots T5, T6 and T10 + hydroxyurea 2.6-2.8 g/L; for WCW: lots T5, T6 and T10 + hydroxyurea 2.6-2.8 g/L added 5 hours after feed start, triplicate bioreactors; for WB Titer (Normalized): whole broth titer = supernatant titer*(1-WCW/1000)
Experimental: The glucose and ethanol were measured by YSI 2700 (YSI Incorporated, Yellow Springs, Ohio), O2 and CO2 of the exhaust line were measured by Questor GP Process Mass Spectrometer (ABB Extrel, Pittsburgh, Pa.) and the RQ value was calculated using below Equation [1]. The wet cell weight (WCW) was measured by centrifuging one (1) milliliter (mL) fermentation broth at 13,200 rpm for 10 minutes, weighing pellet, and calculated ratio of pellets weight (g) over volume (mL). The supernatant titer (g/L) was measured by the HPLC method and the whole broth (WB) titer was then calculated by below Equation[2]. Non reduced and reducing SDS-PAGE gels are performed following standard method.
WB_Titer=Supernatant_Titer*(1−WCW/1000)
The treatment cultures were operated the same way plus adding hydroxyurea 5 hours after feed start.

[2] = test system: suspended S. cerevisiae cells; details: 5.7 g/L hydroxyurea; cited from earlier work

For `NC(=O)NO` [Hydroxyurea], the “average whole broth titer” value ([1]; 90 hours run time, three hydroxyurea treatment lots, three control lots 59.8) was 75 normalized units, the “WCW reached/maintained by hydroxyurea treatment lots” value ([1]; after peak cell density at 30-40 hours, control lots ~400 g/Kg, FIG. 8) was ~450 g/kg and the “Sup Titer (Normalized)” value ([1]; age 59 h) was 83.9 ± 2.2 Normalized. The WCW ([1]; age 59 h) was 437 ± 17 g/kg, the “WB Titer (Normalized)” value ([1]; age 59 h) was 47.2 ± 1.8 Normalized and the “Sup Titer (Normalized)” value ([1]; age 90 h) was 123.3 ± 5.8 Normalized. The WCW ([1]; age 90 h) was 392 ± 20 g/kg, the “WB Titer (Normalized)” value ([1]; age 90 h) was 75.0 ± 2.7 Normalized and the “reduction of cell mass” value [2] was 50%. The “reduction of total polysaccharide content” value [2] was 65% and the “synthesis of protein and RNA” value [2] was “not adversely affected”.
